# Data from patent US10584117B2, “1,3,4-oxadiazole amide derivative compound as histone deacetylase 6 inhibitor, and pharmaceutical composition containing same” (Chong Kun Dang Pharmaceutical Corp., priority 2015, dated 2020).
# Biological target: T1, human recombinant HDAC6 (Homo sapiens, UniProt Q9UBN7)
# T1 construct: purchased Calbiochem 382180
# T1 sequence (Q9UBN7 1-1215): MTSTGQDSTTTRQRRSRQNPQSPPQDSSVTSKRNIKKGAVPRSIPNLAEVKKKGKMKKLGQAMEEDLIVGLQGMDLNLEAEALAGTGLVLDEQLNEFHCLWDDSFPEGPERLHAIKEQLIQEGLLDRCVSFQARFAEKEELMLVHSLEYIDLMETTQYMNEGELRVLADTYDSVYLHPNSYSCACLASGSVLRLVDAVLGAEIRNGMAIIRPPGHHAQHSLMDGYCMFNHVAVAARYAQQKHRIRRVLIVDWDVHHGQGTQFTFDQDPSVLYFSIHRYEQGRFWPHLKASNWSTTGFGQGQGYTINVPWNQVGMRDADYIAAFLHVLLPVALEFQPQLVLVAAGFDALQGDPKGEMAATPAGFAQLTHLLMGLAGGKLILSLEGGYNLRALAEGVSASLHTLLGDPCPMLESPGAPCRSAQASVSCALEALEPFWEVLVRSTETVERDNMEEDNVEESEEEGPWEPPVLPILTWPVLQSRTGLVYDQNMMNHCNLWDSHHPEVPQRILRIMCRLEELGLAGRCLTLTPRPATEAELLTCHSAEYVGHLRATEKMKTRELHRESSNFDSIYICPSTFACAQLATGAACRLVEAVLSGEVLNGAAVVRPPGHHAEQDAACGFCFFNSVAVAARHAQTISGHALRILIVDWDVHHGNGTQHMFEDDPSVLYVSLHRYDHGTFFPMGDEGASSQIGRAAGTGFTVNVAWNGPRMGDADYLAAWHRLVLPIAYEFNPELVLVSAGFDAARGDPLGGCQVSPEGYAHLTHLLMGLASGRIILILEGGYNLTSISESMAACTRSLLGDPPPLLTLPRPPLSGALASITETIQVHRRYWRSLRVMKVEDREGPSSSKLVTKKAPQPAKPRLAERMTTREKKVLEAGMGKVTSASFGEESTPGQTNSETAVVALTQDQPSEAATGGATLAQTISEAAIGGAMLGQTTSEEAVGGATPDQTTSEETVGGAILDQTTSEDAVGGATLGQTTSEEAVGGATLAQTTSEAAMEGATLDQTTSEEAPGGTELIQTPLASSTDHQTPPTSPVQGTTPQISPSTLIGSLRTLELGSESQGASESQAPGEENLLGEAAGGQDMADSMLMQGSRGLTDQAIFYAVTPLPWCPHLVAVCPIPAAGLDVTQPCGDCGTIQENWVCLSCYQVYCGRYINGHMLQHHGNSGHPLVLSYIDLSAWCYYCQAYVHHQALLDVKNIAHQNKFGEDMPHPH
# Experiment: HDAC enzyme activity inhibition assay (HDAC6, fluorimetric kit)
# Format: biochemical
# Conditions: for HDAC6 selectivity (fold): HDAC6 versus HDAC1; for IC50: same protocol as the HDAC1 test
# Protocol: In order to examine the HDAC6 selectivity of the compounds of formula I of the present invention by HDAC1 and HDAC6 enzymatic activity inhibition assays, an experiment was performed using a conventional substance as a control. HDAC enzyme activity was measured using a HDAC Fluorimetric Drug Discovery Kit (BML-AK511, 516) from Enzo Life Science. For the HDAC1 enzyme activity test, human recombinant HDAC1 (BML-SE456) was used as an enzyme source, and Fluor de Lys®-“SIRT1 (BNL-KI177) was used as a substrate. A 5-fold dilution of the compound was seeded into a 96-well plate, and then 0.3 μg of the enzyme and 10 μM of the substrate were added to each well of the plate and allowed to react at 30° C. for 60 minutes. Then, Fluor de Lys®-Developer II (BML-KI176) was added thereto and allowed to react for 30 minutes, after which the fluorescence value (Ex 360, Em 460) was measured using a multi-plate reader (Flexstation 3, Molecular Device). The HDAC6 enzyme was tested using human recombinant HDAC6 (382180) from Calbiochem, according to the same protocol as the HDAC1 enzyme activity test method. Based on the resulting values, each IC50 value was calculated using GraphPad Prism4.0 program.
SMILES,HDAC6 selectivity (fold),IC50
"O=C(C1CN(C(=O)C(F)(F)F)C1)N(Cc1ccc(-c2nnc(C(F)(F)F)o2)cc1)c1ccccc1 [Compound 11159, N-phenyl-1-(2,2,2-trifluoroacetyl)-N-(4-(5-(trifluoromethyl)-1,3,4-oxadiazol-2-yl)benzyl)azetidine-3-carboxamide]",787 fold,127 nM
"CN1CCC(C(=O)N(Cc2ccc(-c3nnc(C(F)F)o3)cc2F)c2ccccc2)CC1 [Compound 11208, N-(4-(5-(difluoromethyl)-1,3,4-oxadiazol-2-yl)-2-fluorobenzyl)-1-methyl-N-phenylpiperidine-4-carboxamide]",1136 fold,88 nM
"CC(=O)N1CCC(C(=O)N(Cc2ccc(-c3nnc(C(F)F)o3)cc2F)c2ccccc2)CC1 [Compound 11211, 1-acetyl-N-(4-(5-(difluoromethyl)-1,3,4-oxadiazol-2-yl)-2-fluorobenzyl)-N-phenylpiperidine-4-carboxamide]",1351 fold,74 nM
"CN1CCC(C(=O)N(Cc2ccc(-c3nnc(C(F)(F)F)o3)cc2F)c2ccccc2)CC1 [Compound 11200, N-(2-fluoro-4-(5-(trifluoromethyl)-1,3,4-oxadiazol-2-yl)benzyl)-1-methyl-N-phenylpiperidine-4-carboxamide]",763 fold,131 nM
"CCC(=O)N1CCC(C(=O)N(Cc2ccc(-c3nnc(C(F)(F)F)o3)cc2)c2ccccc2)CC1 [Compound 11162, N-phenyl-1-propionyl-N-(4-(5-(trifluoromethyl)-1,3,4-oxadiazol-2-yl)benzyl)piperidine-4-carboxamide]",483 fold,207 nM
"O=C(C1CCN(C(=O)C(F)(F)F)CC1)N(Cc1ccc(-c2nnc(C(F)F)o2)cc1F)c1ccccc1 [Compound 11214, N-(4-(5-(difluoromethyl)-1,3,4-oxadiazol-2-yl)-2-fluorobenzyl)-N-phenyl-1-(2,2,2-trifluoroacetyl)piperidine-4-carboxamide]",714 fold,140 nM
"CCN1CCC(C(=O)N(Cc2ccc(-c3nnc(C(F)F)o3)cc2F)c2ccccc2)CC1 [Compound 11209, N-(4-(5-(difluoromethyl)-1,3,4-oxadiazol-2-yl)-2-fluorobenzyl)-1-ethyl-N-phenylpiperidine-4-carboxamide]",1031 fold,97 nM
"CN1CC(C(=O)N(Cc2ccc(-c3nnc(C(F)(F)F)o3)cc2)c2ccccc2)C1 [Compound 11138, 1-methyl-N-phenyl-N-(4-(5-(trifluoromethyl)-1,3,4-oxadiazol-2-yl)benzyl)azetidine-3-carboxamide]",351 fold,285 nM
"CC(C)N1CCC(C(=O)N(Cc2ccc(-c3nnc(C(F)F)o3)cc2F)c2ccccc2)CC1 [Compound 11210, N-(4-(5-(difluoromethyl)-1,3,4-oxadiazol-2-yl)-2-fluorobenzyl)-1-isopropyl-N-phenylpiperidine-4-carboxamide]",418 fold,239 nM
"O=C(c1ccncc1)N(Cc1ccc(-c2nnc(C(F)(F)F)o2)cc1)c1ccccc1 [Compound 11022, N-phenyl-N-(4-(5-(trifluoromethyl)-1,3,4-oxadiazol-2-yl)benzyl)isonicotinamide]",427 fold,234 nM
"O=C(CN1CCC[C@@H]1CO)N(Cc1ccc(-c2nnc(C(F)F)o2)cc1F)c1ccc(F)c(Cl)c1 [Compound 11537, (R)-N-(3-chloro-4-fluorophenyl)-N-(4-(5-(difluoromethyl)-1,3,4-oxadiazol-2-yl)-2-fluorobenzyl)-2-(2-(hydroxymethyl)pyrrolidin-1-yl)acetamide]",1429 fold,70 nM
"O=C(C1CCN(C2COC2)CC1)N(Cc1ccc(-c2nnc(C(F)F)o2)cc1F)c1ccccc1 [Compound 11622, N-(4-(5-(difluoromethyl)-1,3,4-oxadiazol-2-yl)-2-fluorobenzyl)-1-(oxetan-3-yl)-N-phenylpiperidine-4-carboxamide]",714 fold,140 nM
"CS(=O)(=O)N1CC(C(=O)N(Cc2ccc(-c3nnc(C(F)(F)F)o3)cc2)c2ccccc2)C1 [Compound 11160, 1-(methylsulfonyl)-N-phenyl-N-(4-(5-(trifluoromethyl)-1,3,4-oxadiazol-2-yl)benzyl)azetidine-3-carboxamide]",606 fold,165 nM
"CN1CC(C(=O)N(Cc2ccc(-c3nnc(C(F)F)o3)cc2F)c2ccccc2)C1 [Compound 11238, N-(4-(5-(difluoromethyl)-1,3,4-oxadiazol-2-yl)-2-fluorobenzyl)-1-methyl-N-phenylazetidine-3-carboxamide]",2222 fold,45 nM
"CS(=O)(=O)N1CCN(CC(=O)N(Cc2ccc(-c3nnc(C(F)F)o3)cc2F)c2ccc(F)c(Cl)c2)CC1 [Compound 11613, N-(3-chloro-4-fluorophenyl)-N-(4-(5-(difluoromethyl)-1,3,4-oxadiazol-2-yl)-2-fluorobenzyl)-2-(4-(methylsulfonyl)piperazin-1-yl)acetamide]",676 fold,148 nM
"CC(=O)N1CC(C(=O)N(Cc2ccc(-c3nnc(C(F)(F)F)o3)cc2F)c2ccccc2)C1 [Compound 11234, 1-acetyl-N-(2-fluoro-4-(5-(trifluoromethyl)-1,3,4-oxadiazol-2-yl)benzyl)-N-phenylazetidine-3-carboxamide]",1754 fold,57 nM
"CC(=O)N(Cc1ccc(-c2nnc(C(F)(F)F)o2)cc1F)c1ccccc1 [Compound 11246, N-(2-fluoro-4-(5-(trifluoromethyl)-1,3,4-oxadiazol-2-yl)benzyl)-N-phenylacetamide]",758 fold,132 nM
"CC(=O)N1CCC(C(=O)N(Cc2ccc(-c3nnc(C(F)(F)F)o3)cc2)c2ccccc2)CC1 [Compound 11161, 1-acetyl-N-phenyl-N-(4-(5-(trifluoromethyl)-1,3,4-oxadiazol-2-yl)benzyl)piperidine-4-carboxamide]",204 fold,489 nM
"O=C(C1CCN(C2COC2)CC1)N(Cc1ccc(-c2nnc(C(F)(F)F)o2)cc1F)c1ccccc1 [Compound 11621, N-(2-fluoro-4-(5-(trifluoromethyl)-1,3,4-oxadiazol-2-yl)benzyl)-1-(oxetan-3-yl)-N-phenylpiperidine-4-carboxamide]",358 fold,279 nM
"CC(=O)N1CCC(C(=O)N(Cc2ccc(-c3nnc(C(F)(F)F)o3)cc2F)c2ccccc2)CC1 [Compound 11203, 1-acetyl-N-(2-fluoro-4-(5-(trifluoromethyl)-1,3,4-oxadiazol-2-yl)benzyl)-N-phenylpiperidine-4-carboxamide]",694 fold,144 nM
"CCN1CC(C(=O)N(Cc2ccc(-c3nnc(C(F)(F)F)o3)cc2)c2ccccc2)C1 [Compound 11139, 1-ethyl-N-phenyl-N-(4-(5-(trifluoromethyl)-1,3,4-oxadiazol-2-yl)benzyl)azetidine-3-carboxamide]",775 fold,129 nM
"CC(=O)N(Cc1ccc(-c2nnc(C(F)(F)F)o2)cc1)c1ccccc1 [Compound 11105, N-phenyl-N-(4-(5-(trifluoromethyl)-1,3,4-oxadiazol-2-yl)benzyl)acetamide]",524 fold,191 nM
